Assay results: ChEMBL document CHEMBL1136582, “Identification of a high-affinity phosphopeptide inhibitor of Stat3” (Bioorg Med Chem Lett, 2003)
Square brackets hold non-standard residues; d marks the D form. Peptide text beside a SMILES is read from it. * marks the point of attachment. ξ: configuration not given here. Phe(4-tetrazol-5-yl) = N[C@@H](Cc1ccc(-c2nnn[nH]2)cc1)C(=O)O; Phe(4-COOH) = N[C@@H](Cc1ccc(C(=O)O)cc1)C(=O)O; pY = N[C@@H](Cc1ccc(OP(=O)(O)O)cc1)C(=O)O; X1 = NC(=O)[C@H](CO)NC[C@H](CC(=O)O)N*; ξA = CC(N)C(=O)O

Each compound was assayed against Signal transducer and activator of transcription 3 (Homo sapiens, UniProt P40763) (assay: Inhibition of Stat3 (Signal transduction and activator of transcription 3) dimerization measured by EMSAs (Electrophoretic mobility shift assay)).
Signal transducer and activator of transcription 3, sequence (P40763 whole entry): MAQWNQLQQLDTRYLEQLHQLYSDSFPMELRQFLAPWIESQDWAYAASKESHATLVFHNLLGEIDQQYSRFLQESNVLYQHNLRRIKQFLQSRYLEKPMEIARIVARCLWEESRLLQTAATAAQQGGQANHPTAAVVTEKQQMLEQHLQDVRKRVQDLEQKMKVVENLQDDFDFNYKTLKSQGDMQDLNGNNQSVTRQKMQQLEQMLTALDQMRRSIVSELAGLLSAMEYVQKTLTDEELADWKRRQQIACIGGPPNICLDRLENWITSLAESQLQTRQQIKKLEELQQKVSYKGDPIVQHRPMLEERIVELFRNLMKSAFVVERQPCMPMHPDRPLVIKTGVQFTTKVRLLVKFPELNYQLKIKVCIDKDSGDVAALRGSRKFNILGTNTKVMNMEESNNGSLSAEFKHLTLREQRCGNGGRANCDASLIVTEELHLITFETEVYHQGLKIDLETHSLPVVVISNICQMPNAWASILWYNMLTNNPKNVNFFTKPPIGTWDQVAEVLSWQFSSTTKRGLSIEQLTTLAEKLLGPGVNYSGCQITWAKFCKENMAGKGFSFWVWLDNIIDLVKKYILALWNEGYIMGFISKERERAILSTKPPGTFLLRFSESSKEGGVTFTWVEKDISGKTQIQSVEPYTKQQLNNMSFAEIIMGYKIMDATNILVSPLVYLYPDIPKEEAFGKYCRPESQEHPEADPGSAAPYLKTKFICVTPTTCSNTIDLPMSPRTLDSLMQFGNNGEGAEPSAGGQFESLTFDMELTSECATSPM

| SMILES | IC50 [µM] |
| --- | --- |
| CC(=O)N[C@@H](Cc1ccc(C(=O)O)cc1)C(=O)N[C@@H](CC(C)C)C(=O)N1CCC[C@H]1C(=O)N[C@@H](CCC(N)=O)C(=O)N[C@H](C(=O)N[C@H](C(N)=O)C(C)C)[C@@H](C)O (Ac-[Phe(4-COOH)]LPQTV-NH2) | > 6 |
| CC(=O)N[C@@H](Cc1ccc(-c2nn[nH]n2)cc1)C(=O)N[C@@H](CC(C)C)C(=O)N1CCC[C@H]1C(=O)N[C@@H](CCC(N)=O)C(=O)N[C@H](C(=O)N[C@H](C(N)=O)C(C)C)[C@@H](C)O (Ac-[Phe(4-tetrazol-5-yl)]LPQTV-NH2) | > 6 |
| CC(=O)N[C@@H](Cc1ccc(OP(=O)(O)O)cc1)C(=O)N[C@@H](CC(C)C)C(=O)N1CCC[C@H]1C(N)=O (Ac-[pY]-Leu-Pro-NH2) | > 6 |
| CSCC[C@H](NC(=O)[C@H](CCC(N)=O)NC(=O)[C@@H]1CCCN1C(=O)[C@H](CCCCN)NC(=O)[C@H](Cc1ccc(OP(=O)(O)O)cc1)NC(C)=O)C(=O)N[C@@H](Cc1cnc[nH]1)C(N)=O (Ac-[pY]KPQMH-NH2) | 0.4 |
| CC(=O)N[C@@H](Cc1ccc(OP(=O)(O)O)cc1)C(=O)N[C@@H](CC(C)C)C(=O)N1CCC[C@H]1C(=O)N[C@@H](C)C(=O)N[C@H](C(=O)N[C@H](C(N)=O)C(C)C)[C@@H](C)O (Ac-[pY]LPATV-NH2) | > 6 |
| CC(=O)N[C@@H](Cc1ccc(OP(=O)(O)O)cc1)C(=O)N[C@@H](CC(C)C)C(=O)N1CCC[C@H]1C(=O)N[C@@H](CCC(=O)O)C(=O)N[C@H](C(=O)N[C@H](C(N)=O)C(C)C)[C@@H](C)O (Ac-[pY]LPETV-NH2) | > 6 |
| CC(=O)N[C@@H](Cc1ccc(OP(=O)(O)O)cc1)C(=O)N[C@@H](CC(C)C)C(=O)N1CCC[C@H]1C(=O)N[C@@H](CCC(N)=O)C(=O)N[C@H](C(=O)N[C@@H](C)C(=O)O)[C@@H](C)O (Ac-[pY]LPQTA-OH) | 0.4 |
| CSCC[C@H](NC(=O)[C@H](C)NC(=O)[C@H](CCC(N)=O)NC(=O)[C@@H]1CCCN1C(=O)[C@H](CCCN=C(N)N)NC(=O)[C@H](Cc1ccc(OP(=O)(O)O)cc1)NC(C)=O)C(N)=O (Ac-[pY]RPQAM-NH2) | 1 |
| CC(=O)N[C@@H](Cc1ccc(OP(=O)(O)O)cc1)C(=O)N[C@@H](CO)C(=O)N[C@@H](CC(=O)O)C(=O)NCC(=O)N[C@@H](CC(N)=O)C(=O)N[C@@H](Cc1ccccc1)C(N)=O (Ac-[pY]SDGNF-NH2) | > 150 |
| CC(=O)N[C@@H](Cc1ccc(OP(=O)(O)O)cc1)C(=O)N[C@@H](CO)C(=O)N[C@H](C(=O)N[C@H](C(=O)N[C@H](C(=O)N[C@@H](Cc1c[nH]cn1)C(N)=O)C(C)C)C(C)C)[C@@H](C)O (Ac-[pY]STVVH-NH2) | > 150 |

The next lines start with the values.

| IC50 [µM] | SMILES |
| --- | --- |
| 1.6 | CC(=O)N[C@@H](Cc1ccc(OP(=O)(O)O)cc1)C(=O)N[C@@H](C)C(=O)N1CCC[C@H]1C(=O)N[C@@H](CCC(N)=O)C(=O)N[C@H](C(=O)N[C@H](C(N)=O)C(C)C)[C@@H](C)O (Ac-[pY]APQTV-NH2) |
| 60 | CC(=O)N[C@@H](Cc1ccc(OP(=O)(O)O)cc1)C(=O)N[C@@H](Cc1ccccc1)C(=O)N[C@@H](CCCCN)C(=O)N[C@@H](CCC(N)=O)C(=O)N[C@@H](CC(N)=O)C(=O)N[C@@H](CS)C(N)=O (Ac-[pY]FKQNC-NH2) |
| 6 | CC(=O)N[C@@H](Cc1ccc(OP(=O)(O)O)cc1)C(=O)N[C@@H](CC(C)C)C(=O)N[C@@H](CCCCN)C(=O)N[C@@H](CCC(N)=O)C(=O)N[C@@H](CCC(=O)O)C(=O)N[C@@H](CO)C(N)=O (Ac-[pY]LKQES-NH2) |
| 2 | CC(=O)N[C@@H](Cc1ccc(OP(=O)(O)O)cc1)C(=O)N[C@@H](CC(C)C)C(=O)N1CCC[C@H]1C(=O)N[C@@H](CC(N)=O)C(=O)N[C@H](C(=O)N[C@H](C(N)=O)C(C)C)[C@@H](C)O (Ac-[pY]LPNTV-NH2) |
| 0.8 | CC(=O)N[C@@H](Cc1ccc(OP(=O)(O)O)cc1)C(=O)N[C@@H](CC(C)C)C(=O)N1CCC[C@H]1C(=O)N[C@@H](CCC(N)=O)C(=O)N[C@@H](C)C(=O)N[C@H](C(N)=O)C(C)C (Ac-[pY]LPQAV-NH2) |
| 80 | CC(=O)N[C@@H](Cc1ccc(OP(=O)(O)O)cc1)C(=O)N[C@@H](CC(C)C)C(=O)N[C@@H](CCCN=C(N)N)C(=O)N[C@@H](CS)C(=O)N[C@H](CN[C@@H](CO)C(N)=O)CC(=O)O (Ac-[pY]LRC-X1) |
| 4 | CC(=O)N[C@@H](Cc1ccc(OP(=O)(O)O)cc1)C(=O)N[C@@H](CC(C)C)C(=O)NC(C)C(=O)N[C@@H](CCC(N)=O)C(=O)N[C@H](C(=O)N[C@H](C(N)=O)C(C)C)[C@@H](C)O (some centres not stated) (Ac-[pY]L[ξA]QTV-NH2) |
| 1.5 | CSCC[C@H](NC(=O)[C@H](Cc1ccc(OP(=O)(O)O)cc1)NC(C)=O)C(=O)N1CCC[C@H]1C(=O)N[C@@H](CCC(N)=O)C(N)=O (Ac-[pY]MPQ-NH2) |
| 8 | CC(=O)N[C@@H](Cc1ccc(OP(=O)(O)O)cc1)C(=O)N[C@@H](CCC(N)=O)C(=O)N[C@@H](CCCCN)C(=O)N[C@@H](CCC(N)=O)C(=O)N[C@H](C(=O)N[C@@H](CCCN=C(N)N)C(N)=O)[C@@H](C)O (Ac-[pY]QKQTR-NH2) |
| 6 | CC(=O)N[C@@H](Cc1ccc(OP(=O)(O)O)cc1)C(=O)N[C@@H](CCC(N)=O)C(=O)N1CCC[C@H]1C(=O)N[C@@H](CCC(N)=O)C(=O)N[C@@H](C)C(=O)N[C@@H](CCCCN)C(N)=O (Ac-[pY]QPQAK-NH2) |
| 6 | CC(=O)N[C@@H](Cc1ccc(OP(=O)(O)O)cc1)C(=O)N[C@@H](CCCN=C(N)N)C(=O)N[C@@H](Cc1cnc[nH]1)C(=O)N[C@@H](CCC(N)=O)C(=O)N[C@H](C(=O)N1CCC[C@H]1C(N)=O)C(C)C (Ac-[pY]RHQVP-NH2) |
| 8 | CC(=O)N[C@@H](Cc1ccc(OP(=O)(O)O)cc1)C(=O)N[C@H](C(=O)N[C@@H](CC(C)C)C(=O)N[C@@H](CCC(N)=O)C(=O)NCC(=O)N[C@@H](CC(=O)O)C(N)=O)C(C)C (Ac-[pY]VLQGD-NH2) |
